Results as given in patent US4990613A, “(1R,5S,6S)-2-[(6,7-dih ydro-5H-pyrazolo[1,2-a][1,2,4]triazolium-6-yl)]thio-6-[R-1-hydroxyethyl]- 1-methyl-carbapenem-3-carboxylate and intermediate therefor” (Lederle (Japan), Ltd., priority 1987, dated 1991).
Converted amounts (≈) assume the structure as drawn.

Tests used:
[1] = test system: C. freundii resistant strains; test: Sensitivity test against clinical isolates, C. freundii resistant strains; type: cell-based; conditions: CFIX/CTX resistant strains
Description: Cefixime (CFIX) (50 to >100 μg/ml)
Cefotaxime (CTX) (50 to >100 μg/ml)
The tests were carried out in the same manner as described above Test 1.

[2] = test system: Proteus mirabilis IFO3849; test: Antibacterial test, agar plate dilution method; conditions: Proteus mirabilis, IFO3849, 18 h
[3] = test system: Proteus vulgaris OX-19; test: Antibacterial test, agar plate dilution method; conditions: Proteus vulgaris, OX19, 18 h

## C[C@@H](O)[C@H]1C(=O)N2C(C(=O)O)=C(SCCN=CN)C[C@H]12 [Imipenem]
[1]; concentration of 0.78 μg/ml
  test microorganisms whose growth is inhibited: approximately 90%
[1]; concentration of 1.56 μg/ml
  test microorganisms whose growth is inhibited: all the test microorganisms
[2]
  MIC: 6.25 µg/mL (≈ 20.9 µM)
[3]
  MIC: 0.78 µg/mL (≈ 2.61 µM)
